# Test: Forced degradation study of compound D1 (HPLC)
# Type: physicochemical
# Experimental: Sample stock solution was prepared by weighing 60.74 mg of compound D1 to a 100 mL volumetric flask, dissolving by ultrasonic in 50 mL of diluent 2, diluting to volume with diluent 2, and mixing well.
# Unstressed sample solution was prepared by weighing 21.32 mg of compound D1 into a 100 mL volumetric flask, dissolving by ultrasonic in 50 mL of diluent 3, diluting to volume with diluent 3, and mixing well.
# Sample solution for pH=4.0 solution stability was prepared as follows. 20.96 mg of compound D1 were weighed into a 100 mL volumetric flask, dissolved by ultrasonic in 50 mL of pH=4.0 50 mM sodium citrate buffer, diluted to volume with pH=4.0 50 mM sodium citrate buffer, and mixed well.
# Sample solution for pH=5.0 solution stability was prepared as follows. 20.75 mg of compound D were weighed into a 100 mL volumetric flask, dissolved by ultrasonic in 50 mL of pH=5.0 50 mM sodium citrate buffer, diluted to volume with pH=5.0 50 mM sodium citrate buffer, and mixed well.
# Sample solution for pH=7.0 solution stability was prepared as follows. 19.91 mg of compound D1 and 684.71 mg KH2PO4 were weighed into a 100 mL volumetric flask, dissolved by ultrasonic in 50 mL of diluent 1, transferred 29.1 mL of 0.1N NaOH into the same volumetric flask, diluted to volume with diluent 1, and mixed well.
# Acid degradation (1N HCl at RT). 3 mL of the sample stock solution (see above) were transferred into an 8 mL vial, 3 mL of 2N HCl solution were added, and the resulting mixture was mixed well. Samples were prepared in quadruplicate and kept at RT. At the sampling point, 2 mL of the sample were transferred into an 8 mL vial and neutralized with 1 mL of 2N NaOH.
# Samples were prepared in triplicate and kept at RT. […]
# Oxidation degradation (3% H2O2 at RT). 3 mL of the sample stock solution (see above) were transferred into an 8 mL vial, 3 mL of 6% H2O2 solution were added, and the resulting mixture was mixed well. Samples were prepared in quadruplicate and kept at RT. At the sampling time point, 2 mL of the solution were transferred into an 8 mL vial, neutralized with 1 mL of diluent 3, and mixed well.
# Photolysis degradation (solid). About 60 mg of compound D1 were placed onto a watch glass. Samples were prepared in triplicate and placed in a photo chamber (see Table 8). At the sampling time point, the sample was placed in a vial for analysis. About 20.0±2.0 mg of the sample into a 100 mL volumetric flask, dissolved by ultrasonic in 50 mL of diluent 3, diluted to volume with diluent 3, and mixed well.
# Dark control sample: one sample was prepared as described above for this test, but the watch glass was covered with aluminum foil, and processed as described above.
# Solid: about 60 mg of compound D1 were weighted into an 8 mL vial. Samples were prepared in triplicate and placed in an oven at 80° C. At the sampling time point, about 20.0±2.0 mg of the sample were weighed into a 100 mL volumetric flask, dissolved by ultrasonic in 50 mL of diluent 3, diluted to volume with diluent 3, and mixed well.
# Solution: 3 mL of the sample stock solution (see above) were transferred into an 8 mL vial. Samples were prepared in triplicate and placed them in an oven at 80° C. At the sampling time point, 1 mL of the solution was transferred into an 8 mL vial, neutralized with 2 mL of diluent 3, and mixed well.
# Humidity degradation (92% RH for solid). About 60 mg of compound D1 were transferred into a 20 mL vial (without cap). Samples were prepared in triplicate and placed in a desiccator at 92% RH. At the sampling time point, about 20.0±2.0 mg of the sample were transferred into a 100 mL volumetric flask, dissolved by ultrasonic in 50 mL of diluent 3, diluted to volume with diluent 3, and mixed well.
# Solution Stability. Samples were prepared tested under the solution stability conditions noted in Table 8. The sampling time points were as noted in Table 8.
# [1] = Acid Hydrolysis, 1N HCl RT, 0 h
# [2] = Acid Hydrolysis, 1N HCl RT, 1 d
# [3] = Acid Hydrolysis, 1N HCl RT, 2 d
# [4] = Acid Hydrolysis, 1N HCl RT, 3 d
# [5] = Base Hydrolysis, 1N NaOH RT, 0 h
# [6] = Base Hydrolysis, 1N NaOH RT, 1 h
# [7] = Photolysis, 1.10 W/m^2/25° C. for solid, 13 h
# [8] = Photolysis, 1.10 W/m^2/25° C. for solid, 26 h
# [9] = Photolysis, 1.10 W/m^2/25° C. for solid, 39 h
# [10] = Solution Stability, pH = 4.0, 50 mM Sodium citrate buffer at RT, 0 h
# [11] = Solution Stability, pH = 4.0, 50 mM Sodium citrate buffer at RT, 1 d
# [12] = Solution Stability, pH = 4.0, 50 mM Sodium citrate buffer at RT, 3 d
# [13] = Solution Stability, pH = 4.0, 50 mM Sodium citrate buffer at RT, 7 d
# [14] = Solution Stability, pH = 5.0 50 mM Sodium citrate buffer at RT, 0 h
# [15] = Solution Stability, pH = 5.0 50 mM Sodium citrate buffer at RT, 1 d
# [16] = Solution Stability, pH = 5.0 50 mM Sodium citrate buffer at RT, 3 d
# [17] = Solution Stability, pH = 5.0 50 mM Sodium citrate buffer at RT, 7 d
# [18] = Solution Stability, pH = 7.0 Phosphate buffer at RT, 0 h
# [19] = Solution Stability, pH = 7.0 Phosphate buffer at RT, 1 d
# [20] = Solution Stability, pH = 7.0 Phosphate buffer at RT, 2 d
compound,measurement,setting,value
"COc1cc(-c2cn(C)c(=O)c3cnc(N4CCC4)cc23)cc(OC)c1CN1CCC(CN2CCC3(CC2)CN(c2ccc4c(c2)C(=O)N(C2CCC(=O)NC2=O)C4)C3)CC1 (racemic) [Compound D1, 3-[6-(7-[[1-([4-[6-(azetidin-1-yl)-2-methyl-1-oxo-2,7-naphthyridin-4-yl]-2,6-dimethoxyphenyl]methyl)piperidin-4-yl]methyl]-2,7-diazaspiro[3.5]nonan-2-yl)-1-oxo-3H-isoindol-2-yl]piperidine-2,6-dione]",% Degradation,[1],0.438%
same,% Mass Balance,[1],108.2%
same,Area %,[1],93.734%
same,% Degradation,[2],4.781%
same,% Mass Balance,[2],106.5%
same,Area %,[2],89.391%
same,% Degradation,[3],8.992%
same,% Mass Balance,[3],107.6%
same,Area %,[3],85.180%
same,% Degradation,[4],12.125%
same,% Mass Balance,[4],106.9%
same,Area %,[4],82.047%
same,% Degradation,[5],25.210%
same,% Mass Balance,[5],104.0%
same,Area %,[5],68.962%
same,% Degradation,[6],76.841%
same,% Mass Balance,[6],98.0%
same,Area %,[6],17.331%
same,% Degradation,"Humidity, 92% RH, 1 d",1.245%
same,% Mass Balance,"Humidity, 92% RH, 1 d",98.8%
same,Area %,"Humidity, 92% RH, 1 d",92.927%
same,% Degradation,"Humidity, 92% RH, 3 d",2.091%
same,% Mass Balance,"Humidity, 92% RH, 3 d",99.5%
same,Area %,"Humidity, 92% RH, 3 d",92.081%
same,% Degradation,"Humidity, 92% RH, 7 d",3.282%
same,% Mass Balance,"Humidity, 92% RH, 7 d",99.8%
same,Area %,"Humidity, 92% RH, 7 d",90.890%
same,% Degradation,"Oxidation, 3% H2O2 RT, 0 h",16.184%
same,% Mass Balance,"Oxidation, 3% H2O2 RT, 0 h",106.8%
same,Area %,"Oxidation, 3% H2O2 RT, 0 h",77.988%
same,% Degradation,"Oxidation, 3% H2O2 RT, 8 h",60.417%
same,% Mass Balance,"Oxidation, 3% H2O2 RT, 8 h",105.2%
same,Area %,"Oxidation, 3% H2O2 RT, 8 h",33.755%
same,% Degradation,[7],3.088%
same,% Mass Balance,[7],101.0%
same,Area %,[7],91.084%
same,% Degradation,[8],3.256%
same,% Mass Balance,[8],92.1%
same,Area %,[8],90.916%
same,% Degradation,[9],3.436%
same,% Mass Balance,[9],105.7%
same,Area %,[9],90.736%
same,% Degradation,[10],0.656%
same,% Mass Balance,[10],90.1%
same,Area %,[10],93.516%
same,% Degradation,[11],0.841%
same,% Mass Balance,[11],93.7%
same,Area %,[11],93.331%
same,% Degradation,[12],1.299%
same,% Mass Balance,[12],93.9%
same,Area %,[12],92.873%
same,% Degradation,[13],2.042%
same,% Mass Balance,[13],93.7%
same,Area %,[13],92.130%
same,% Degradation,[14],1.674%
same,% Mass Balance,[14],95.3%
same,Area %,[14],92.498%
same,% Degradation,[15],1.922%
same,% Mass Balance,[15],103.1%
same,Area %,[15],92.250%
same,% Degradation,[16],2.133%
same,% Mass Balance,[16],100.0%
same,Area %,[16],92.039%
same,% Degradation,[17],4.658%
same,% Mass Balance,[17],100.8%
same,Area %,[17],89.514%
same,% Degradation,[18],1.534%
same,% Mass Balance,[18],97.1%
same,Area %,[18],92.638%
same,% Degradation,[19],8.920%
same,% Mass Balance,[19],102.6%
same,Area %,[19],85.252%
same,% Degradation,[20],15.170%
same,% Mass Balance,[20],100.6%
same,Area %,[20],79.002%
same,% Degradation,"Thermal, 80° C., Solid, 1 d",0.724%
same,% Mass Balance,"Thermal, 80° C., Solid, 1 d",105.7%
same,Area %,"Thermal, 80° C., Solid, 1 d",93.448%
same,% Degradation,"Thermal, 80° C., Solid, 3 d",0.978%
same,% Mass Balance,"Thermal, 80° C., Solid, 3 d",97.6%
same,Area %,"Thermal, 80° C., Solid, 3 d",93.194%
same,% Degradation,"Thermal, 80° C., Solid, 7 d",11.980%
same,% Mass Balance,"Thermal, 80° C., Solid, 7 d",92.7%
same,Area %,"Thermal, 80° C., Solid, 7 d",82.192%
same,% Degradation,"Thermal, 80° C., Solution, 1 d",0.119%
same,% Mass Balance,"Thermal, 80° C., Solution, 1 d",100.5%
same,Area %,"Thermal, 80° C., Solution, 1 d",94.053%
same,% Degradation,"Thermal, 80° C., Solution, 7 d",62.235%
same,% Mass Balance,"Thermal, 80° C., Solution, 7 d",104.2%
same,Area %,"Thermal, 80° C., Solution, 7 d",31.937%
same,Area %,Unstressed,94.172%
